Results on 86 compounds are retold here after a melting point compilation (Tetko et al.; mined from patent text by program, amines drawn as free bases though some values may be those of a salt).

Regarding `CCOc1nc(Cl)nc2c1oc1nc(-c3ccccc3)cc(C)c12`, the melting point (as a rule, the temperature of the solid-liquid transition) lay in the range of 131 to 132 °C.
`N#CC1CN1OCc1ccc(Cl)cc1` (stereo unspecified) displayed a melting point of 45 to 48 °C.
As to `Cc1c(NC(=O)c2ccc(-c3ccc(Cl)cc3)cc2)ccc2cc(CN3CCCC3)cnc12`, the melting point is 227 to 229 °C.
Consider `O=C1C(=Cc2ccc(Br)cc2)CCc2cc(OCCn3ccnc3)ccc21`, for which the melting point was 152 to 153 °C.
Consider `O=[N+]([O-])c1cn2c(n1)O[C@@H](COc1ccc3nc(N4CCN(Cc5ccc(OC(F)(F)F)cc5)CC4)sc3c1)CC2`, for which the melting point was 157 to 159 °C.
The compound `CCCCCCCC[C@H](O)[C@H](O)[C@H]1CCC(=O)O1` registered a melting point of 117 to 119 °C.
As for `CCN1CCN(Cc2ccc(-c3nc4cc(OC)cc(OC)c4c(=O)[nH]3)cc2)CC1`, the figure is 278 to 280 °C; as for `CC(C)(C)OC(=O)[C@@H]1CCCN1C(=O)CCS`, 57 to 58 °C; as for `COc1cc(OC)cc(N2CCN(C(=O)Nc3cc(-c4ccccn4)nc4ccccc34)CC2)c1`, 97 to 98 °C.
The result for `CC(C)C[C@@H]1OC(O)[C@H](Cc2ccccc2)NC1=O` (stereo partly specified) reads 84 to 84.5 °C; that for `COC(=O)c1ccccc1S(=O)(=O)NC(=O)Nc1nc(C)cc(CO)n1`, 140 to 141 °C.
The result for `c1ccc2cc(CC[C@H]3CNCCN3)ccc2c1` reads 151 to 154 °C; that for `O=C1c2cccc([N+](=O)[O-])c2C(=O)N1CC(=O)N1c2ccccc2N(Cc2ccccc2)C(=O)[C@H]2CCC[C@H]21` (relative stereo), 238 to 240 °C.
In the case of `CC(=O)N1CCCC2=C1CCc1cc(Cl)ccc12`, the melting point lay within 106 to 108 °C.
As for `OCc1ncc(O)c2c1[nH]c1ccccc12`, the figure is 148 °C; as for `CC(C)(C)[Si](Oc1ccc(Br)cc1)(c1ccccc1)c1ccccc1`, 56 °C; as for `CCCCCOc1ccc(C(=O)c2cccc3ccccc23)c2ccccc12`, 72 to 75 °C.
With `ClC1=Nc2nc(C3CCCC3)n(Cc3ccccc3)c2C2=N[C@H](Cc3ccccc3)CN12`, the melting point was 124 to 125 °C.
`Cc1cc(C)cc(SCc2c(C(C)C)nc(C(C)C)c(CO)c2-c2ccc(F)cc2)c1` had a melting point of 109 to 110 °C.
`CN(C)c1cc2nc(C(=O)O)c(=O)[nH]c2cc1[N+](=O)[O-]` came in with a melting point of 194 to 196 °C.
As for `COc1cc(C(=O)N2Cc3cccn3Cc3ccccc32)ccc1-n1c(C)ccc1C`, the figure is 141 to 144 °C.
The result for `COc1ccc(C(=O)Nc2ccc(CCc3ccc(O)c(O)c3)cc2)c(O)c1` reads 179 to 180 °C; that for `CCn1nc2c(n1)C(N1CCN(C)CC1)=Nc1cc(F)ccc1N2`, 178 to 180 °C.
`ClCn1cnc(Cl)c1Cl` showed a melting point of 40 to 41 °C.
As to `CN(C(=O)Nc1ccc(OC(F)(F)F)cc1)c1nc(OCC(F)(F)F)cc(OCC(F)(F)F)n1`, the melting point fell in the range of 123 to 125 °C.
With `Cc1cc(-n2c(=O)[nH]c3ccccc32)cc2c1NC(=O)CC2C` (stereo unspecified), the melting point lay in the range of 250 to 254 °C.
As for `CSc1ccc(C=CC(=O)c2cccc(Br)c2)cc1`, the figure is 148 °C; as for `CS(=O)(=O)c1cccc(C(Cc2ccc(F)cc2)C(=O)Nc2nc3ccccc3o2)c1` (stereo unspecified), 99 to 100 °C; as for `CN(C)c1nc(N)c(C#N)nc1C#N`, 201 to 202 °C.
The compound `CCOc1ccccc1-c1cc(NC(=O)C2CCN(C(C)C)CC2)ncn1` displayed a melting point of 173 to 175 °C.
The result for `CCOC(=O)c1c(-c2cccc(F)c2)c(Cl)n2c1CNCC2` reads 96 to 98 °C; that for `NS(=O)(=O)c1ccc(CCO)s1`, 70 to 72 °C; that for `Cc1ccncc1Cn1nnnc1-c1cc(Cl)ccc1Cl`, 169 to 171 °C.
The result for `CC(C)(C)C(=O)c1ccc(C2(C)OCCO2)cc1` reads 75 to 82 °C; that for `CNC(=O)CN1CCc2ccc(Nc3ncc(Cl)c(Nc4ccc(N5CCOCC5)cc4OC)n3)cc2CC1`, 169 to 176 °C.
The result for `Cc1c(C)c2c(c(C)c1O)CCC(C)(COc1ccc(NC(=S)NC(c3ccccc3)c3ccccc3)cc1)O2` (stereo unspecified) reads 146 to 148 °C; that for `COC(=O)Cc1ccc(OCCNC(=O)C2Cc3ccccc3N2S(=O)(=O)c2ccc(-c3ccc(F)cc3OC)cc2)cc1` (stereo unspecified), 70 to 75 °C; that for `O=C(Cc1ccc2c(c1)OCO2)Nc1cc(C2CC2)n[nH]1`, 174 to 176 °C.
Compound `CN(c1ccc(F)c2cc(-c3nccs3)[nH]c12)S(=O)(=O)c1cccs1` yielded a melting point of 197 to 198 °C.
As for `O=C(N[C@@H](Cc1ccccc1)C(=O)Nc1nncs1)OCc1ccccc1`, the figure is 78 to 83 °C.
Compound `CCOC(=O)c1ccc2c(c1)c(-c1ccccc1)nn2CCC#N` yielded a melting point of 99 to 102 °C.
For `Cc1cc(C)c2nc(NC3CCN(CCO)CC3)n(Cc3nc(C)ccc3O)c2c1`, the melting point came out at 177 °C.
Compound `N#CC1=C(c2cccs2)Nc2n[nH]cc2C1c1cccc2nonc12` (stereo unspecified) came in with a melting point of 230 °C.
In the case of `N#CC1=C(C2CC2)Nc2n[nH]cc2C1c1cccc(N2CCOCC2)c1` (stereo unspecified), the melting point was greater than 260 °C.
As for `C[C@H](CC(F)(F)F)[C@@H](CO)NS(=O)(=O)c1ccc(Cl)s1`, the figure is 132 to 133 °C; as for `O=C1CC(c2ccc(O)cc2)=Nc2ccc(N3CCCC3)cc21`, 304 to 306 °C.
As for `NS(=O)(=O)c1ccc(N2CN(c3ccccc3)CC2=O)c(Cl)c1`, the figure is 204 °C; as for `NS(=O)(=O)c1ccc(C2=C(c3ccc(F)cc3)CCC2)cc1`, 173 to 174 °C; as for `Cc1[nH]c(/C=C2\C(=O)Nc3cc(NC(=O)NC(=O)c4ccccc4)ccc32)c(C)c1C(=O)O`, 270 to 275 °C.
As for `COC(=O)N[C@H]1CC[C@H](CCN2CCN(c3cccc(Cl)c3Cl)CC2)CC1`, the figure is 143 to 147 °C; as for `CCC(=O)Nc1nnc2c3c(c(N4CCCCC4)nn12)CCCC3`, 173 to 174 °C.
With `O=C(Nc1ccc(N2CCS(=O)(=O)CC2)c(C(F)(F)F)c1)c1cccc2cc(Oc3cc(NC(=O)C4CC4)ncn3)ccc12`, the melting point was in the range of 195 to 205 °C.
The result for `O=C1C=C(Nc2ccccc2F)CCC1` reads 116 to 118 °C; that for `COc1ccccc1C(C)NCC(=O)Nc1c(C(C)C)cccc1C(C)C` (stereo unspecified), 68 to 70 °C.
As for `CCCCCCCCCCCCOS(=O)(=O)O`, the figure is 72 °C; as for `O=C(O)c1ccc2c(c1)S(=O)c1ccc([N+](=O)[O-])cc1C=C2` (stereo unspecified), 278 to 281 °C; as for `COc1ccc(-c2c[nH]c(-c3nc(-c4ccco4)c(C(=O)C4CCOCC4)s3)n2)cc1`, 178 to 180 °C.
The result for `COc1ccccc1N1CCN(c2cc3ccccc3cn2)CC1` reads 112 to 114 °C; that for `OCCc1ccc2c(c1)sc1ccc(Cl)cc12`, 98 to 100 °C; that for `Cn1c(CO)ccc1S(=O)(=O)N1CCC(CCO)(Sc2cc(C(C)(C)C)c(O)c(C(C)(C)C)c2)CC1`, 126 to 127 °C.
`N#Cc1cccn1-c1cc(C(=O)N=C(N)N)cc(C(=O)N=C(N)N)c1`: the melting point lay within 251 to 253 °C.
The result for `N[C@H]1CC[C@H](CNc2ncc3ncnc(Nc4ccc(F)c(Cl)c4)c3n2)CC1` reads 166 to 169 °C; that for `CCCCCCCCCCCCn1nnc(C(C)(C)S(=O)(=O)Nc2c(C(C)C)cccc2C(C)C)n1`, 63 to 65 °C.
`CCOC(=O)C=C(C)C=CC=C(C)C=Cc1c(C)c(C)c(OC)c(C)c1Cl` returned a melting point of 90 °C.
For the compound `CCOc1cc(C)ccc1C1CCN(CCCCNC(=O)c2ccc3c(c2)cc(-c2ccc(Cl)cc2)n3C)CC1`, the melting point is 174 to 175 °C.
The result for `CNC(=O)N(c1ccncc1)n1cccc1` reads 156 to 160 °C; that for `O=Cc1c2ccccc2cc2c(Cl)cccc12`, 129 to 131 °C; that for `OCc1cnoc1-c1ccc(Cl)c(Cl)c1`, 101 to 102 °C.
Consider `CC(=O)N1CCC(n2nc(-c3c(-c4ccccc4)nn4ccccc34)ccc2=O)CC1`, for which the melting point fell in the range of 114 to 117 °C.
The result for `CCN(c1nc2ccccc2c(=O)o1)c1ccccc1I` reads 129 to 130 °C; that for `COC(=O)c1ccc(Cl)cc1NC(=O)Cc1cccnc1`, 85 to 87 °C; that for `NC(=O)Cc1c(C(=O)c2ccccc2)[nH]c2cc(Cl)ccc12`, 234 to 237 °C.
In turn, `CCN(CC)C(=O)c1cc2ccccc2c(-c2ccc(C)cc2)n1` yielded a melting point of 113 °C.
The compound `COC(=O)c1c(C)nc2c(c1N(C)C)c1ccccc1n2C` displayed a melting point of 106 to 108 °C.
As for `Brc1ccc(-c2nc3n(c2-c2ccc(Br)cc2)CCS3)cc1`, the figure is 208 to 210 °C; as for `Cc1cc2c(-c3ccccc3)c(NC(=O)NCc3ccccc3N)n(C)c(=O)c2cc1C`, 218 °C; as for `CCCCc1n[nH]c(C(=O)OC)c1Cc1ccc(-c2ccccc2-c2nc(=O)s[nH]2)cc1`, 171 to 172 °C.
The result for `COc1ccc2c(c1)OC(CNCCCOc1cc3ccccc3oc1=O)CO2` (stereo unspecified) reads 176 to 178 °C; that for `CCC1(CCCCN2CCN(c3ccc(Cl)cc3)CC2)C(=O)Nc2cc(F)ccc21` (stereo unspecified), 145 to 147 °C.
`O=C(NCCN1CCC(Oc2ccc(Cl)c(Cl)c2)CC1)c1nnc(Nc2ccccc2Cl)o1` displayed a melting point of 161 to 162 °C.
`CN(Cc1cccc(-c2ccc(CC3SC(=O)NC3=O)cc2)c1)C(=O)c1cccs1` (stereo unspecified) had a melting point of 160 °C.
As for `Cc1nnc(NC(=O)C2=C(O)c3ccc4ccccc4c3S(=O)(=O)N2C)s1`, the figure is 252 to 255 °C; as for `O=C(NC(CCc1ccccc1)c1nnc(NS(=O)(=O)c2ccccc2)o1)c1cccc2[nH]c(-c3ccncc3)nc12` (stereo unspecified), 220 °C; as for `C[C@@H]1O[C@](/C=C/C2CC2)(C(F)(F)F)c2c(ccc3c2OCO3)NC1=O` (relative stereo), 236 to 237 °C.
Compound `Nc1cc2c(cc1C(=O)CNC(=O)C(F)(F)F)OCO2` came in with a melting point of 219 to 220 °C.
As for `NC(=O)N1C(=O)C(C(=O)c2ccco2)c2ccc(F)cc21` (stereo unspecified), the melting point was 231 to 235 °C.
